According to paper PMC3930709, “Selective Activation of hTRPV1 by N-Geranyl Cyclopropylcarboxamide, an Amiloride-Insensitive Salt Taste Enhancer” (PLoS ONE, 2014):

What was measured:
non-transfected cells = experiment: Whole-cell patch clamp recording, non-transfected cells (control); assay type: cell-based, human; conditions: capsaicin 100 nM, AITC 100 µM, NGCC 10^3 µM
Description: (§1) Mouse ASIC1a (mASIC1a) was a kind gift from John A. Wemmie (University of Iowa, IA, USA). For electrophysiological experiments, HEK293T cells were cultured in DMEM supplemented with 10% FBS and 0.2% penicillin/streptomycin and transiently transfected using Lipofectamine 2000 (Invitrogen) with various cDNAs. For TRPV1 channel expression, cells were transfected with hTRPV1, for ASIC1a homomeric channel expression, cells were transfected with mASIC1a. When needed, 0.1–0.2 µg of cDNA encoding tetrameric red fluorescence protein (DsRed) was co-transfected with the cDNA as a marker for successfully transfected cells. For non-transfected cells, cells were transfected with 0.1–0.2 µg of cDNA encoding DsRed alone. The next day, cells were plated onto poly-L-lysine-coated coverslip chips, and fluorescent cells were studied within 1–2 days.
The whole-cell configuration was used to voltage-clamp at room temperature (22–25°C). Electrodes pulled from glass micropipette capillaries (Sutter Instrument) had resistances of 2–2.5 MΩ, and series resistance errors were compensated >60%. Fast and slow capacitances were compensated before the application of test-pulse. Recordings were performed using aHEKAEPC-10 amplifier with pulse software (HEKA Elektronik). […] TRPV1 and TRPA1 currents were recorded by holding the cell at −80 mV. […] ASIC currents were recorded by holding the cell at −70 mV. […]

hTRPA1 = target: T1, hTRPA1 (Homo sapiens, UniProt O75762); experiment: Whole-cell patch clamp recording, cells stably expressing hTRPA1; assay type: cell-based; conditions: NGCC 10^3 µM
T1 construct: expressed in transfected cells
Description: Flp-In 293 cell lines stably expressing hTRPA1constructed as previously reported was a gift from the professor Takumi Misaka at University of Tokyo. The hTRPA1-expressing cells were cultured in DMEM containing 10% FBS and 0.02% hygromycin B (Invitrogen). Flp-In 293 cell lines were maintained in DMEM containing 10% FBS. All cells were incubated at 37°C in a humidified atmosphere of 5% CO2.
(§2) The whole-cell configuration was used to voltage-clamp at room temperature (22–25°C). Electrodes pulled from glass micropipette capillaries (Sutter Instrument) had resistances of 2–2.5 MΩ, and series resistance errors were compensated >60%. Fast and slow capacitances were compensated before the application of test-pulse. Recordings were performed using aHEKAEPC-10 amplifier with pulse software (HEKA Elektronik). The pipette solution contained: 140 mM KCl, 5 mM MgCl2, 10 mM HEPES, 0.1 mM 1,2-bis(2-aminophenoxy) ethane N,N,N’,N’-tetraacetic acid(BAPTA), 3 mM Na2ATP, and 0.1 mM Na3GTP, adjusted to pH 7.4 with KOH. The external Ringer’s solution used for recording TRPV1 and TRPA1 currents contained: 150 mM NaCl, 5 mM KCl, 1 mM MgCl2, 2 mM EGTA, 10 mM Glucose, and 10 mM HEPES, adjusted to pH 7.4 with NaOH. TRPV1 and TRPA1 currents were recorded by holding the cell at −80 mV. The external Ringer’s solution used for recording ASIC current contained: 160 mM NaCl, 5 mM KCl, 1 mM MgCl2, 2 mM CaCl2, and 10 mM HEPES, adjusted to pH 7.4 with tetramethylammonium hydroxide. For acidic solution of pH 6.0, HEPES was replaced with MES. ASIC currents were recorded by holding the cell at −70 mV. Reagents were obtained as follows: BAPTA, Na2ATP, Na3GTP, EGTA, and tetramethylammonium hydroxide (Sigma), HEPES (Calbiochem), MES (Alfa Aesar), and other chemicals (Merck).

[1] = tested on: amiloride-insensitive salt taste pathway; set-up: method as in PMID 23221408; conditions: WT and TRPV1 KO mice, electrophysiological studies; cited from earlier work
[2] = tested on: non-hTRPA1-expressing Flp-In 293 cells; experiment: Ca2+ imaging of non-hTRPA1-expressing Flp-In 293 cells (control); assay type: cell-based, human; conditions: comparison with hTRPA1-expressing cells
Description: Flp-In 293 cell lines stably expressing hTRPA1constructed as previously reported was a gift from the professor […] at University of Tokyo. The hTRPA1-expressing cells were cultured in DMEM containing 10% FBS and 0.02% hygromycin B (Invitrogen). Flp-In 293 cell lines were maintained in DMEM containing 10% FBS. All cells were incubated at 37°C in a humidified atmosphere of 5% CO2. […] Mock-transfected HEK293T cells, hTRPV1-expressing HEK293T cells, non-hTRPA1-expressing Flp-In 293 cells, and hTRPA1-expressing Flp-In 293 cells grown in 96-well black-wall plates were rinsed with assay buffer (130 mM NaCl, 10 mM glucose, 5 mM KCl, 2 […]2, 1.2 mM MgCl2, and 10 mM HEPES, pH 7.4) and loaded with 5 μM Fura-2 AM (Invitrogen) for 30 min at 27°C. The cells were washed with assay buffer and treated with ligands. […] The fluorescence intensities of Fura-2 excited at 340 and 380 nm were simultaneously measured at 510 nm using a computer-controlled filter changer (Lambda DG4; Sutter, San Rafael, CA, USA), an Andor Luca CCD camera (Andor Technology, Belfast, UK), and an inverted fluorescence microscope (IX-71; Olympus, Tokyo, Japan). Intracellular calcium images were recorded every 3-s for 60-s and analyzed using MetaFluor software (Molecular Devices, Sunnyvale, CA, USA).

hTRPV1 = target: T2, hTRPV1 (Homo sapiens, UniProt Q8NER1); experiment: Whole-cell patch clamp recording, hTRPV1-expressing HEK293T cells; assay type: cell-based; conditions: capsaicin 100 nM; NGCC 10^3 µM; holding -80 mV
T2 construct: expressed in transfected cells; host or cells: HEK293T
Description: as §1, §2

[3] = tested on: mock-transfected HEK293T cells; experiment: Ca2+ imaging of mock-transfected HEK293T cells (control); assay type: cell-based, human; conditions: single concentration
Description: Mock-transfected HEK293T cells, hTRPV1-expressing HEK293T cells, non-hTRPA1-expressing Flp-In 293 cells, and hTRPA1-expressing Flp-In 293 cells grown in 96-well black-wall plates were rinsed with assay buffer (130 mM NaCl, 10 mM glucose, 5 mM KCl, 2 […]2, 1.2 mM MgCl2, and 10 mM HEPES, pH 7.4) and loaded with 5 μM Fura-2 AM (Invitrogen) for 30 min at 27°C. The cells were washed with assay buffer and treated with ligands. […] The fluorescence intensities of Fura-2 excited at 340 and 380 nm were simultaneously measured at 510 nm using a computer-controlled filter changer (Lambda DG4; Sutter, San Rafael, CA, USA), an Andor Luca CCD camera (Andor Technology, Belfast, UK), and an inverted fluorescence microscope (IX-71; Olympus, Tokyo, Japan). Intracellular calcium images were recorded every 3-s for 60-s and analyzed using MetaFluor software (Molecular Devices, Sunnyvale, CA, USA).

T1 sequence (O75762 whole entry): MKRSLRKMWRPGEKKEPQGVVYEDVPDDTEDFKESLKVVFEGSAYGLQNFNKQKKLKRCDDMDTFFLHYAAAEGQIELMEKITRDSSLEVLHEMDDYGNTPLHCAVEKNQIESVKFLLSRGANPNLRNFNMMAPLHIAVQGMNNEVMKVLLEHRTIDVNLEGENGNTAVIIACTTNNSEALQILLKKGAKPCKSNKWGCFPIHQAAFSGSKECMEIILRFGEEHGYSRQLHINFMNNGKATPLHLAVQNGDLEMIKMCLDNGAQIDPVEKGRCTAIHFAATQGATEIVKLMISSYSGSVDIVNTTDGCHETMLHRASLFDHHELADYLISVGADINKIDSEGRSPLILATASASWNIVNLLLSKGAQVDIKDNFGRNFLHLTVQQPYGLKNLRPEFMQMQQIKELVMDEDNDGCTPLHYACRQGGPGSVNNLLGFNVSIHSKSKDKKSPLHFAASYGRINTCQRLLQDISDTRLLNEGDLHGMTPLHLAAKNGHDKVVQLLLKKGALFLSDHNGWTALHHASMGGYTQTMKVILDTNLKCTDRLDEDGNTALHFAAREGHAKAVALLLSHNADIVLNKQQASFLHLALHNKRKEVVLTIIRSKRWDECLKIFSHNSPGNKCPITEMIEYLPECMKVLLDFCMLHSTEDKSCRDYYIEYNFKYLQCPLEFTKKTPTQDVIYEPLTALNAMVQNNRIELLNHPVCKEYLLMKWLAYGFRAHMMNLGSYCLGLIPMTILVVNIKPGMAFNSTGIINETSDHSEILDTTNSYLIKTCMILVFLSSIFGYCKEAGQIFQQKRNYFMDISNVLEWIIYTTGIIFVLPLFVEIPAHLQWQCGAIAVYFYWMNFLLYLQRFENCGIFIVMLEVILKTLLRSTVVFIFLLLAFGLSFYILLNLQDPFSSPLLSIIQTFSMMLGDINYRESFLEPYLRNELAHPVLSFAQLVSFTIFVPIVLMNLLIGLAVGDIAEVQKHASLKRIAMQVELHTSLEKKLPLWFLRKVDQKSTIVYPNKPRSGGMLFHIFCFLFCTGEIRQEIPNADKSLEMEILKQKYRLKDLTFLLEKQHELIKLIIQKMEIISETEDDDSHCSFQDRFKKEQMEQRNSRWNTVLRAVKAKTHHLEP
T2 sequence (Q8NER1 whole entry): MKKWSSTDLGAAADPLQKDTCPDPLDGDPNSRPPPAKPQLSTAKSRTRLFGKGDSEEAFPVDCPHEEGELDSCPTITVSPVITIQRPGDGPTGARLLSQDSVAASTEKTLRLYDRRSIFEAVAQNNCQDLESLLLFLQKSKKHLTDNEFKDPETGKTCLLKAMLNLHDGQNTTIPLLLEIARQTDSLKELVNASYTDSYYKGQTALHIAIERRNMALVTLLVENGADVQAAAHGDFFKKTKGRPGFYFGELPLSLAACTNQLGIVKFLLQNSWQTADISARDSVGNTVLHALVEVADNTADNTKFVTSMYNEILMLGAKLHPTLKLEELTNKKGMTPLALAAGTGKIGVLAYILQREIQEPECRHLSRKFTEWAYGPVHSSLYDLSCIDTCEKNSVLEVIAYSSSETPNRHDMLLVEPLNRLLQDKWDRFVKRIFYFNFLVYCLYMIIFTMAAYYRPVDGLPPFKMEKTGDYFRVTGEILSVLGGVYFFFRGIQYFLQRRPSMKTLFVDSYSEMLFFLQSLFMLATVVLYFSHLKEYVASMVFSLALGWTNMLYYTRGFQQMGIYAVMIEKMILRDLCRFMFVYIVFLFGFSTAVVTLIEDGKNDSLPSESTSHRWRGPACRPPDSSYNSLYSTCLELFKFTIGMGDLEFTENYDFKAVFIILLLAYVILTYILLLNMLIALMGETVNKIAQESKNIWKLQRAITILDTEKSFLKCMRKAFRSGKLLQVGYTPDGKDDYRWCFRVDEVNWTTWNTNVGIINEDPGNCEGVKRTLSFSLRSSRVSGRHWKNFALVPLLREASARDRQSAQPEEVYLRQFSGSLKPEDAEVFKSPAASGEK

inward current in hTRPA1-expressing cells (hTRPA1; AITC 100 µM, holding -80 mV): induced an inward current
amplitude of current compared with AITC (100 µM) (hTRPA1; same cell): bigger than that of AITC
inward current in cells expressing hTRPV1 (hTRPV1): triggered an inward current
Structure (SMILES): CC(C)=CCC/C(C)=C/CNC(=O)C1CC1 [NGCC, N-geranylcyclopropylcarboxamide]
current in non-transfected cells (non-transfected cells): no current
effect on the amiloride-insensitive salt taste pathway [1]: produced biphasic effects
NGCC activity in non-hTRPA1-expressing Flp-In 293 cells [2]: reacts specifically with hTRPA1
change in fluorescence in mock-transfected cells [3]: no changes in fluorescence
